A word on the IC50: it is the midpoint of a concentration-inhibition curve.

Sequence of Recombinant human cathepsin S (CatS) (P25774 115-331): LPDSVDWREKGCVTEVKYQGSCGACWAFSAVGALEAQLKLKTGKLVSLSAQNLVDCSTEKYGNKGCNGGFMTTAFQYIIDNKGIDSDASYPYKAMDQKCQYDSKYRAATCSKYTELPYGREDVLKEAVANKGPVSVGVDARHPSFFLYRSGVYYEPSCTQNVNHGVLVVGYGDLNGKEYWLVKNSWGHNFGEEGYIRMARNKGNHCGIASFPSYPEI

The first test addresses Recombinant human cathepsin S (CatS) (Homo sapiens, UniProt P25774). The experiment in a line: Recombinant human cathepsin S (CatS) inhibition assay, fluorogenic substrate Z-Valine-Valine-Arginine-AMC.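 Further: Baculovirus-expressed CatS in pH 5.0 sodium acetate buffer with DTT and NaCl, fluorescence read each minute over 20 min, inhibition derived from rate slope.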
Conditions: not given
For the molecule `CN(C)S(=O)(=O)N1CCc2c(c(-c3ccc(Cl)c(C#Cc4ccc(CNCc5ccc(Cl)cc5)cc4)c3)nn2CCCN2CCOCC2)C1` [Example 153, 3-(4-Chloro-3-{[4-({[(4-chlorophenyl)methyl]amino}methyl)phenyl]ethynyl}phenyl)-N,N-dimethyl-1-(3-morpholin-4-ylpropyl)-1,4,6,7-tetrahydro-5H-pyrazolo[4,3-c]pyridine-5-sulfonamide], the half-inhibitory concentration (IC50) worked out at 180 nM. On to `NCC(=O)N1CCc2c(c(-c3ccc(Cl)c(C#Cc4ccc(CNCc5ccc(Cl)cc5)cc4)c3)nn2CCCN2CCOCC2)C1` [Example 154, 2-[3-(4-Chloro-3-{[4-({[(4-chlorophenyl)methyl]amino}methyl)phenyl]ethynyl}phenyl)-1-(3-morpholin-4-ylpropyl)-1,4,6,7-tetrahydro-5H-pyrazolo[4,3-c]pyridin-5-yl]-2-oxoethanamine], for which the half-inhibitory concentration (IC50) was found to be 260 nM. As for `CNC(=O)N1CCc2c(c(-c3ccc(Cl)c(C#Cc4ccc(CNCc5ccc(Cl)cc5)cc4)c3)nn2CCCN2CCOCC2)C1` [Example 155, 3-(4-Chloro-3-{[4-({[(4-chlorophenyl)methyl]amino}methyl)phenyl]ethynyl}phenyl)-N-methyl-1-(3-morpholin-4-ylpropyl)-1,4,6,7-tetrahydro-5H-pyrazolo[4,3-c]pyridine-5-carboxamide], the IC50 was 790 nM.

`NC(=O)N1CCc2c(c(-c3ccc(Cl)c(C#Cc4ccc(CNCc5ccc(Cl)cc5)cc4)c3)nn2CCCN2CCN(c3ccccn3)CC2)C1` [Example 156, 3-(4-Chloro-3-{[4-({[(4-chlorophenyl)methyl]amino}methyl)phenyl]ethynyl}phenyl)-1-[3-(4-pyridin-2-ylpiperazin-1-yl)propyl]-1,4,6,7-tetrahydro-5H-pyrazolo[4,3-c]pyridine-5-carboxamide]: the IC50 was determined as 50 nM. For `C[C@H]1COCCN1CCCn1nc(-c2ccc(Cl)c(C#Cc3ccc(CNCc4ccc(Cl)cc4)cc3)c2)c2c1CCN(C(=O)C(N)=O)C2` [Example 158, 2-[3-(4-Chloro-3-{[4-({[(4-chlorophenyl)methyl]amino}methyl)phenyl]ethynyl}phenyl)-1-{3-[(3S)-3-methylmorpholin-4-yl]propyl}-1,4,6,7-tetrahydro-5H-pyrazolo[4,3-c]pyridin-5-yl]-2-oxoacetamide], the concentration for half-maximal inhibition (IC50) was found to be 50 nM. Same read-out and setting: with `NC(=O)C(=O)N1CCc2c(c(-c3ccc(Cl)c(C#Cc4ccc5c(c4)CN(Cc4ccc(Cl)cc4)CC5)c3)nn2CCCN2CCOCC2)C1` [Example 159, 2-{3-[4-Chloro-3-({2-[(4-chlorophenyl)methyl]-1,2,3,4-tetrahydroisoquinolin-7-yl}ethynyl)phenyl]-1-(3-morpholin-4-ylpropyl)-1,4,6,7-tetrahydro-5H-pyrazolo[4,3-c]pyridin-5-yl}-2-oxoacetamide] the figure was 60 nM; with `NC(=O)N1CCc2c(c(-c3ccc(Cl)c(C#Cc4ccc(CNCc5ccc(Cl)cc5)cc4)c3)nn2CCCN2CCSCC2)C1` [Example 160, 3-(4-Chloro-3-{[4-({[(4-chlorophenyl)methyl]amino}methyl)phenyl]ethynyl}phenyl)-1-(3-thiomorpholin-4-ylpropyl)-1,4,6,7-tetrahydro-5H-pyrazolo[4,3-c]pyridine-5-carboxamide], 60 nM; with `NC(=O)N1CCc2c(c(-c3ccc(Cl)c(C#Cc4ccc(COCc5cccnc5)cc4)c3)nn2CCCN2CCSCC2)C1` [Example 161, 3-{4-Chloro-3-[(4-{[(pyridin-3-ylmethyl)oxy]methyl]phenyl)ethynyl]phenyl}-1-(3-thiomorpholin-4-ylpropyl)-1,4,6,7-tetrahydro-5H-pyrazolo[4,3-c]pyridine-5-carboxamide], 70 nM.

Turning to `NC(=O)N1CCc2c(c(-c3ccc(Cl)c(C#Cc4ccc(C(=O)NCc5cccnc5)cc4)c3)nn2CCCN2CCSCC2)C1` [Example 162, 3-{4-Chloro-3-[(4-{[(pyridin-3-ylmethyl)amino]carbonyl}phenyl)ethynyl]phenyl}-1-(3-thiomorpholin-4-ylpropyl)-1,4,6,7-tetrahydro-5H-pyrazolo[4,3-c]pyridine-5-carboxamide], the IC50 was determined as 90 nM. The same measure, in the same setting: with `NC(=O)N1CCc2c(c(-c3ccc(Cl)c(C#Cc4ccc(CN5CCC(N6CCCC6=O)CC5)cc4)c3)nn2CCCN2CCSCC2)C1` [Example 165, 3-{4-Chloro-3-[(4-{[4-(2-oxopyrrolidin-1-yl)piperidin-1-yl]methyl}phenyl)ethynyl]phenyl}-1-(3-thiomorpholin-4-ylpropyl)-1,4,6,7-tetrahydro-5H-pyrazolo[4,3-c]pyridine-5-carboxamide] the figure was 830 nM; with `Clc1ccc(CNCc2ccc(C#Cc3cc(-c4nn(CCCN5CCOCC5)c5c4CNCC5)ccc3Cl)cc2)cc1` [Example 166, 1-[4-({2-Chloro-5-[1-(3-morpholin-4-ylpropyl)-4,5,6,7-tetrahydro-1H-pyrazolo[4,3-c]pyridin-3-yl]phenyl}ethynyl)phenyl]-N-[(4-chlorophenyl)methyl]methanamine], 2520 nM. Same read-out and setting: for `CCNCc1cc(C#Cc2cc(-c3nn(CCCN4CCCCC4)c4c3CN(C(N)=O)CC4)ccc2Cl)ccc1Cl` [Example 167, 3-[4-Chloro-3-({4-chloro-3-[(ethylamino)methyl]phenyl}ethynyl)phenyl]-1-(3-piperidin-1-ylpropyl)-1,4,6,7-tetrahydro-5H-pyrazolo[4,3-c]pyridine-5-carboxamide] the value was 30 nM.

Staying with this test, now noted: CatS IC50.
Take `C[C@H]1COC[C@H](C)N1CCCn1nc(-c2ccc(Cl)c(C#Cc3ccc(CNCc4ccc(Cl)cc4)cc3)c2)c2c1CCN(C(=O)C(N)=O)C2` [Example 157, 2-(3-{4-Chloro-3-[(4-{[(4-chlorobenzyl)amino]methyl}phenyl)ethynyl]phenyl}-1-{3-[(3S,5S)-3,5-dimethylmorpholin-4-yl]propyl}-1,4,6,7-tetrahydro-5H-pyrazolo[4,3-c]pyridin-5-yl)-2-oxoacetamide]: the IC50 stood at 40 nM.

Turning to `NC(=O)N1CCc2c(c(-c3ccc(Cl)c(C#Cc4ccc(C(=O)N5CCCC5)cc4)c3)nn2CCCN2CCSCC2)C1` [Example 164, 3-(4-Chloro-3-{[4-(pyrrolidin-1-ylcarbonyl)phenyl]ethynyl}phenyl)-1-(3-thiomorpholin-4-ylpropyl)-1,4,6,7-tetrahydro-5H-pyrazolo[4,3-c]pyridine-5-carboxamide], the IC50 worked out at 730 nM.

As to `C[C@H]1COCCN1CCCn1nc(-c2ccc(Cl)c(C#Cc3ccc(Cl)c(C(=O)NCCN4CCOCC4)c3)c2)c2c1CCN(C(=O)C(N)=O)C2` [Example 168, 5-{[5-(5-[Amino(oxo)acetyl]-1-{3-[(3S)-3-methylmorpholin-4-yl]propyl}-4,5,6,7-tetrahydro-1H-pyrazolo[4,3-c]pyridin-3-yl)-2-chlorophenyl]ethynyl}-2-chloro-N-(2-morpholin-4-ylethyl)benzamide], the IC50 was determined as 30 nM. `C[C@H]1COCCN1CCCn1nc(-c2ccc(Cl)c(C#Cc3ccc(C(=O)NCCN4CCOCC4)cc3)c2)c2c1CCN(C(=O)C(N)=O)C2` [Example 169, 4-{[5-(5-[Amino(oxo)acetyl]-1-{3-[(3S)-3-methylmorpholin-4-yl]propyl}-4,5,6,7-tetrahydro-1H-pyrazolo[4,3-c]pyridin-3-yl)-2-chlorophenyl]ethynyl}-N-(2-morpholin-4-ylethyl)benzamide]: the IC50 came out at 50 nM. Same read-out and setting: for `NC(=O)N1CCc2c(c(-c3ccc(Cl)c(C#Cc4ccc(CNCc5ccc(Cl)cc5)cc4)c3)nn2CCCN2C[C@H]3COC[C@H]3C2)C1` [Example 170, 3-[4-Chloro-3-[(4-{[(4-chlorobenzyl)amino]methyl]phenyl)ethynyl]phenyl}-1-{3-[(3aR,6aS)-tetrahydro-1H-furo[3,4-c]pyrrol-5(3H)-yl]propyl}-1,4,6,7-tetrahydro-5H-pyrazolo[4,3-c]pyridine-5-carboxamide] the value was 50 nM; for `NC(=O)N1CCc2c(c(-c3ccc(Cl)c(C#Cc4cccc(CNCc5ccc(Cl)cc5)c4)c3)nn2CCCN2CCSCC2)C1` [Example 171, 3-(4-Chloro-3-{[3-({[(4-chlorophenyl)methyl]amino}methyl)phenyl]ethynyl}phenyl)-1-(3-thiomorpholin-4-ylpropyl)-1,4,6,7-tetrahydro-5H-pyrazolo[4,3-c]pyridine-5-carboxamide], 200 nM; for `O=C(CO)N1CCc2c(c(-c3ccc(Cl)c(C#Cc4ccc(CNCc5ccc(Cl)cc5)cc4)c3)nn2CCCN2CCN(c3ccccc3)CC2)C1` [Example 172, 2-{3-(4-Chloro-3-{[4-({[(4-chlorophenyl)methyl]amino}methyl)phenyl]ethynyl}phenyl)-1-[3-(4-phenylpiperazin-1-yl)propyl]-1,4,6,7-tetrahydro-5H-pyrazolo[4,3-c]pyridin-5-yl}-2-oxoethanol], 30 nM.

In the case of `Cc1ccc(CNCc2ccc(C#Cc3cc(-c4nn(CCCN5CCSCC5)c5c4CN(C(N)=O)CC5)ccc3Cl)cc2)cc1` [Example 173, 3-(4-Chloro-3-{[4-({[(4-methylphenyl)methyl]amino}methyl)phenyl]ethynyl}phenyl)-1-(3-thiomorpholin-4-ylpropyl)-1,4,6,7-tetrahydro-5H-pyrazolo[4,3-c]pyridine-5-carboxamide], the half-maximal inhibitory concentration (IC50) came to 120 nM.

Take `CC(C)Oc1ccc(CNCc2ccc(C#Cc3cc(-c4nn(CCCN5CCSCC5)c5c4CN(C(N)=O)CC5)ccc3Cl)cc2)cc1` [Example 174, 3-{4-Chloro-3-[(4-{[({4-[(1-methylethyl)oxy]phenyl}methyl)amino]methyl}phenyl)ethynyl]phenyl}-1-(3-thiomorpholin-4-ylpropyl)-1,4,6,7-tetrahydro-5H-pyrazolo[4,3-c]pyridine-5-carboxamide]: the IC50 is 270 nM. On the same count and under the same terms, with `CN(C)c1ccc(CNCc2ccc(C#Cc3cc(-c4nn(CCCN5CCSCC5)c5c4CN(C(N)=O)CC5)ccc3Cl)cc2)cc1` [Example 175, 3-[4-Chloro-3-({4-[({[4-(dimethylamino)phenyl]methyl}amino)methyl]phenyl}ethynyl)phenyl]-1-(3-thiomorpholin-4-ylpropyl)-1,4,6,7-tetrahydro-5H-pyrazolo[4,3-c]pyridine-5-carboxamide] the figure was 190 nM; with `NC(=O)N1CCc2c(c(-c3ccc(Cl)c(C#Cc4ccc(CNCc5ccc(OC(F)F)cc5)cc4)c3)nn2CCCN2CCSCC2)C1` [Example 176], 230 nM.

Values taken from patent publication US20080200454A1, “CARBON-LINKED TETRAHYDRO-PYRAZOLO-PYRIDINE MODULATORS OF CATHEPSIN S” (priority 2007, published 2008).
